Assay results reported in patent publication US6689773B2, “Uracil substituted phenyl sulfamoyl carboxamides” (BASF Aktiengesellschaft, priority 2000, dated 2004).

Legend:
Assay type in all cases: in vivo
[1] = tested on: ZEAMX, Field corn, Zea mays L.; assay: Postemergence herbicidal evaluation (Example 147); settings: rating scale 0-9, two to three weeks after treatment
In short: (§1)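 Values are 0-9 visual scores, averaged over repeat tests where available. Seedlings of about two weeks were sprayed with roughly 0.016 to 0.032 kg/ha in 80/20 acetone/water plus 1.0% seed oil, then held in the greenhouse two to three weeks.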

[2] = tested on: AMBEL, Ragweed, Common, Ambrosia artemiisifolia, L.; assay: Postemergence herbicidal evaluation (Example 147); settings: rating scale 0-9, two to three weeks after treatment
In short: as §1

[3] = tested on: DIGSA, Crabgrass, (Hairy) L, Digitaria sanguinalis, (L)Scop; assay: Postemergence herbicidal evaluation (Example 147); settings: rating scale 0-9, two to three weeks after treatment
In short: as §1

[4] = tested on: CHEAL, Lambsquarters, Chenopodium album, L. Common; assay: Postemergence herbicidal evaluation (Example 147); settings: rating scale 0-9, two to three weeks after treatment
In short: as §1

[5] = tested on: SETVI, Green foxtail, Setaria viridis, (L.)Beau; assay: Postemergence herbicidal evaluation (Example 147); settings: rating scale 0-9, two to three weeks after treatment
In short: as §1

[6] = tested on: ECHCG, Barnyardgrass, Echinochloa crusgalli, (L.)Beau; assay: Postemergence herbicidal evaluation (Example 147); settings: rating scale 0-9, two to three weeks after treatment
In short: as §1

[7] = tested on: ABUTH, Velvetleaf, Abutilon theophrasti, Medic.; assay: Postemergence herbicidal evaluation (Example 147); settings: rating scale 0-9, two to three weeks after treatment
In short: as §1

[8] = tested on: IPOHE, Morningglory, Ivyleaf, Ipomoea hederacea, (L)Jacq.; assay: Postemergence herbicidal evaluation (Example 147); settings: rating scale 0-9, two to three weeks after treatment
In short: as §1

[9] = tested on: ALOMY, Blackgrass, Alopecurus myosuroides; assay: Postemergence herbicidal evaluation (Example 147); settings: rating scale 0-9, two to three weeks after treatment
In short: as §1

[10] = tested on: GLXMA, Soybean, Glycine max, (L.) Merr.; assay: Postemergence herbicidal evaluation (Example 147); settings: rating scale 0-9, two to three weeks after treatment
In short: as §1

[11] = tested on: XANST, Cocklebur, Xanthium strumariam; assay: Postemergence herbicidal evaluation (Example 147); settings: rating scale 0-9, two to three weeks after treatment
In short: as §1

[12] = tested on: TRZAW, Winter wheat, Tritium Aestivum, L. (Winter); assay: Postemergence herbicidal evaluation (Example 147); settings: rating scale 0-9, two to three weeks after treatment
In short: as §1

[13] = tested on: ZEAMX, Field corn, Zea mays L.; assay: Preemergence herbicidal evaluation (Example 148); settings: rating scale 0-9, two to four weeks after treatment
In short: (§2)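 Scores reflect visual assessment of plant stand, vigour, malformation, size and chlorosis relative to an untreated control, made two to four weeks after a preemergence spray delivering about 0.125–0.250 kg/ha.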

[14] = tested on: AMBEL, Ragweed, Common, Ambrosia artemiisifolia, L.; assay: Preemergence herbicidal evaluation (Example 148); settings: rating scale 0-9, two to four weeks after treatment
In short: as §2

[15] = tested on: DIGSA, Crabgrass, (Hairy) L, Digitaria sanguinalis, (L)Scop; assay: Preemergence herbicidal evaluation (Example 148); settings: rating scale 0-9, two to four weeks after treatment
In short: as §2

[16] = tested on: CHEAL, Lambsquarters, Chenopodium album, L. Common; assay: Preemergence herbicidal evaluation (Example 148); settings: rating scale 0-9, two to four weeks after treatment
In short: as §2

[17] = tested on: SETVI, Green foxtail, Setaria viridis, (L.)Beau; assay: Preemergence herbicidal evaluation (Example 148); settings: rating scale 0-9, two to four weeks after treatment
In short: as §2

[18] = tested on: ECHCG, Barnyardgrass, Echinochloa crusgalli, (L.)Beau; assay: Preemergence herbicidal evaluation (Example 148); settings: rating scale 0-9, two to four weeks after treatment
In short: as §2

[19] = tested on: ABUTH, Velvetleaf, Abutilon theophrasti, Medic.; assay: Preemergence herbicidal evaluation (Example 148); settings: rating scale 0-9, two to four weeks after treatment
In short: as §2

[20] = tested on: IPOHE, Morningglory, Ivyleaf, Ipomoea hederacea, (L)Jacq.; assay: Preemergence herbicidal evaluation (Example 148); settings: rating scale 0-9, two to four weeks after treatment
In short: as §2

[21] = tested on: ALOMY, Blackgrass, Alopecurus myosuroides; assay: Preemergence herbicidal evaluation (Example 148); settings: rating scale 0-9, two to four weeks after treatment
In short: as §2

[22] = tested on: GLXMA, Soybean, Glycine max, (L.) Merr.; assay: Preemergence herbicidal evaluation (Example 148); settings: rating scale 0-9, two to four weeks after treatment
In short: as §2

[23] = tested on: XANST, Cocklebur, Xanthium strumariam; assay: Preemergence herbicidal evaluation (Example 148); settings: rating scale 0-9, two to four weeks after treatment
In short: as §2

[24] = tested on: TRZAW, Winter wheat, Tritium Aestivum, L. (Winter); assay: Preemergence herbicidal evaluation (Example 148); settings: rating scale 0-9, two to four weeks after treatment
In short: as §2

Structure (SMILES): CC(C)N(C(C)C)S(=O)(=O)NC(=O)c1cc(-n2c(=O)cc(C(F)(F)F)n(C)c2=O)c(F)cc1Cl [Example 60]
- Postemergence herbicidal rating ZEAMX ([1]; rate 0.016 kg/ha): 8.0
- Postemergence herbicidal rating ZEAMX ([1]; rate 0.032 kg/ha): 8.0
- Postemergence herbicidal rating AMBEL ([2]; rate 0.016 kg/ha): 9.0
- Postemergence herbicidal rating AMBEL ([2]; rate 0.032 kg/ha): 9.0
- Postemergence herbicidal rating DIGSA ([3]; rate 0.016 kg/ha): 6.0
- Postemergence herbicidal rating DIGSA ([3]; rate 0.032 kg/ha): 7.0
- Postemergence herbicidal rating CHEAL ([4]; rate 0.016 kg/ha): 8.0
- Postemergence herbicidal rating CHEAL ([4]; rate 0.032 kg/ha): 9.0
- Postemergence herbicidal rating SETVI ([5]; rate 0.016 kg/ha): 8.0
- Postemergence herbicidal rating SETVI ([5]; rate 0.032 kg/ha): 9.0
- Postemergence herbicidal rating ECHCG ([6]; rate 0.016 kg/ha): 8.0
- Postemergence herbicidal rating ECHCG ([6]; rate 0.032 kg/ha): 7.0
- Postemergence herbicidal rating ABUTH ([7]; rate 0.016 kg/ha): 9.0
- Postemergence herbicidal rating ABUTH ([7]; rate 0.032 kg/ha): 9.0
- Postemergence herbicidal rating IPOHE ([8]; rate 0.016 kg/ha): 9.0
- Postemergence herbicidal rating IPOHE ([8]; rate 0.032 kg/ha): 9.0
- Postemergence herbicidal rating ALMOY ([9]; rate 0.016 kg/ha): 3.0
- Postemergence herbicidal rating ALMOY ([9]; rate 0.032 kg/ha): 3.0
- Postemergence herbicidal rating GLXMA ([10]; rate 0.016 kg/ha): 8.5
- Postemergence herbicidal rating GLXMA ([10]; rate 0.032 kg/ha): 8.5
- Postemergence herbicidal rating XANST ([11]; rate 0.016 kg/ha): 9.0
- Postemergence herbicidal rating XANST ([11]; rate 0.032 kg/ha): 9.0
- Postemergence herbicidal rating TRZAW ([12]; rate 0.016 kg/ha): 6.0
- Postemergence herbicidal rating TRZAW ([12]; rate 0.032 kg/ha): 6.0
- Preemergence herbicidal rating ZEAMX ([13]; rate 0.125 kg/ha): 0.0
- Preemergence herbicidal rating ZEAMX ([13]; rate 0.25 kg/ha): 0.0
- Preemergence herbicidal rating AMBEL ([14]; rate 0.125 kg/ha): 9.0
- Preemergence herbicidal rating AMBEL ([14]; rate 0.25 kg/ha): 9.0
- Preemergence herbicidal rating DIGSA ([15]; rate 0.125 kg/ha): 6.0
- Preemergence herbicidal rating DIGSA ([15]; rate 0.25 kg/ha): 6.0
- Preemergence herbicidal rating CHEAL ([16]; rate 0.125 kg/ha): 9.0
- Preemergence herbicidal rating CHEAL ([16]; rate 0.25 kg/ha): 9.0
- Preemergence herbicidal rating SETVI ([17]; rate 0.125 kg/ha): 5.0
- Preemergence herbicidal rating SETVI ([17]; rate 0.25 kg/ha): 9.0
- Preemergence herbicidal rating ECHCG ([18]; rate 0.125 kg/ha): 0.0
- Preemergence herbicidal rating ECHCG ([18]; rate 0.25 kg/ha): 4.0
- Preemergence herbicidal rating ABUTH ([19]; rate 0.125 kg/ha): 9.0
- Preemergence herbicidal rating ABUTH ([19]; rate 0.25 kg/ha): 9.0
- Preemergence herbicidal rating IPOHE ([20]; rate 0.125 kg/ha): 7.0
- Preemergence herbicidal rating IPOHE ([20]; rate 0.25 kg/ha): 6.0
- Preemergence herbicidal rating ALMOY ([21]; rate 0.125 kg/ha): 0.0
- Preemergence herbicidal rating ALMOY ([21]; rate 0.25 kg/ha): 0.0
- Preemergence herbicidal rating GLXMA ([22]; rate 0.125 kg/ha): 0.0
- Preemergence herbicidal rating GLXMA ([22]; rate 0.25 kg/ha): 6.0
- Preemergence herbicidal rating XANST ([23]; rate 0.125 kg/ha): 0.0
- Preemergence herbicidal rating XANST ([23]; rate 0.25 kg/ha): 4.0
- Preemergence herbicidal rating TRZAW ([24]; rate 0.125 kg/ha): 0.0
- Preemergence herbicidal rating TRZAW ([24]; rate 0.25 kg/ha): 0.0
